In ChEMBL document CHEMBL1121576, “Congeners of the alpha conformer of dopamine derived from octahydrobenz[h]isoquinoline” (1980):

Legend:
Type in all cases: functional
Felis catus [1] = assay: Percent reduction in blood pressure after iv administration of 1 umol/kg of compound in anesthetized cat
Felis catus [2] = assay: Percent reduction in heart rate after iv administration of 1 umol/kg of compound in anesthetized cats.
Felis catus [3] = organism: Felis catus; assay: Tested for inhibitory activity against postganglionic cardioaccelerator nerve relative to apomorphine
Felis catus [4] = organism: Felis catus; assay: Tested for inhibition of postganglionic cardioaccelerator nerve in the cat; settings: for ED50: Felis catus, read-out: ID50 (the source's name)

Structure (SMILES)	Reduction (Felis catus [1]) [%]	Reduction (Felis catus [2]) [beats min-1]	Relative activity (Felis catus [3])	ED50 (Felis catus [4]) [µmol/kg]	ID50 (Felis catus [4]) [µM/kg]
Br.CCN1CC[C@H]2CCc3cc(O)c(O)cc3[C@H]2C1	18.5	4.3	0.025	0.81	
Br.CCCN1CC[C@H]2CCc3cc(O)c(O)cc3[C@@H]2C1 (relative stereo)	13.3	3	0.026	0.8	
Br.CCCN1CC[C@H]2CCc3cc(O)c(O)cc3[C@H]2C1 (relative stereo)	31.7	22.6	0.02	0.9	
Br.Oc1cc2c(cc1O)C1CNCCC1CC2 (stereo in doubt; 21)	27.9	13.6	0.073		0.31
Br.CN1CCC2CCc3cc(O)c(O)cc3C2C1 (trans isomer)	14.6	3.2	0.038	0.52	
Br.Oc1cc2c(cc1O)C1CNCCC1CC2 (trans isomer)	21.9	49	0.27		0.8
CN1CCc2cccc3c2[C@H]1Cc1ccc(O)c(O)c1-3 [APOMORPHINE]			1	0.024	
